{"source": "patent US9884828B2", "about": "“Substituted cinnolines as inhibitors of LRRK2 kinase activity” (Imago Pharmaceuticals, Inc., priority 2011, dated 2018)", "note": "pIC50: −log10 of the molar value."}
{"target": "recombinant GST-LRRK2 (wild-type) (Homo sapiens (Human), UniProt Q5S007)", "sequence (Q5S007 whole entry)": "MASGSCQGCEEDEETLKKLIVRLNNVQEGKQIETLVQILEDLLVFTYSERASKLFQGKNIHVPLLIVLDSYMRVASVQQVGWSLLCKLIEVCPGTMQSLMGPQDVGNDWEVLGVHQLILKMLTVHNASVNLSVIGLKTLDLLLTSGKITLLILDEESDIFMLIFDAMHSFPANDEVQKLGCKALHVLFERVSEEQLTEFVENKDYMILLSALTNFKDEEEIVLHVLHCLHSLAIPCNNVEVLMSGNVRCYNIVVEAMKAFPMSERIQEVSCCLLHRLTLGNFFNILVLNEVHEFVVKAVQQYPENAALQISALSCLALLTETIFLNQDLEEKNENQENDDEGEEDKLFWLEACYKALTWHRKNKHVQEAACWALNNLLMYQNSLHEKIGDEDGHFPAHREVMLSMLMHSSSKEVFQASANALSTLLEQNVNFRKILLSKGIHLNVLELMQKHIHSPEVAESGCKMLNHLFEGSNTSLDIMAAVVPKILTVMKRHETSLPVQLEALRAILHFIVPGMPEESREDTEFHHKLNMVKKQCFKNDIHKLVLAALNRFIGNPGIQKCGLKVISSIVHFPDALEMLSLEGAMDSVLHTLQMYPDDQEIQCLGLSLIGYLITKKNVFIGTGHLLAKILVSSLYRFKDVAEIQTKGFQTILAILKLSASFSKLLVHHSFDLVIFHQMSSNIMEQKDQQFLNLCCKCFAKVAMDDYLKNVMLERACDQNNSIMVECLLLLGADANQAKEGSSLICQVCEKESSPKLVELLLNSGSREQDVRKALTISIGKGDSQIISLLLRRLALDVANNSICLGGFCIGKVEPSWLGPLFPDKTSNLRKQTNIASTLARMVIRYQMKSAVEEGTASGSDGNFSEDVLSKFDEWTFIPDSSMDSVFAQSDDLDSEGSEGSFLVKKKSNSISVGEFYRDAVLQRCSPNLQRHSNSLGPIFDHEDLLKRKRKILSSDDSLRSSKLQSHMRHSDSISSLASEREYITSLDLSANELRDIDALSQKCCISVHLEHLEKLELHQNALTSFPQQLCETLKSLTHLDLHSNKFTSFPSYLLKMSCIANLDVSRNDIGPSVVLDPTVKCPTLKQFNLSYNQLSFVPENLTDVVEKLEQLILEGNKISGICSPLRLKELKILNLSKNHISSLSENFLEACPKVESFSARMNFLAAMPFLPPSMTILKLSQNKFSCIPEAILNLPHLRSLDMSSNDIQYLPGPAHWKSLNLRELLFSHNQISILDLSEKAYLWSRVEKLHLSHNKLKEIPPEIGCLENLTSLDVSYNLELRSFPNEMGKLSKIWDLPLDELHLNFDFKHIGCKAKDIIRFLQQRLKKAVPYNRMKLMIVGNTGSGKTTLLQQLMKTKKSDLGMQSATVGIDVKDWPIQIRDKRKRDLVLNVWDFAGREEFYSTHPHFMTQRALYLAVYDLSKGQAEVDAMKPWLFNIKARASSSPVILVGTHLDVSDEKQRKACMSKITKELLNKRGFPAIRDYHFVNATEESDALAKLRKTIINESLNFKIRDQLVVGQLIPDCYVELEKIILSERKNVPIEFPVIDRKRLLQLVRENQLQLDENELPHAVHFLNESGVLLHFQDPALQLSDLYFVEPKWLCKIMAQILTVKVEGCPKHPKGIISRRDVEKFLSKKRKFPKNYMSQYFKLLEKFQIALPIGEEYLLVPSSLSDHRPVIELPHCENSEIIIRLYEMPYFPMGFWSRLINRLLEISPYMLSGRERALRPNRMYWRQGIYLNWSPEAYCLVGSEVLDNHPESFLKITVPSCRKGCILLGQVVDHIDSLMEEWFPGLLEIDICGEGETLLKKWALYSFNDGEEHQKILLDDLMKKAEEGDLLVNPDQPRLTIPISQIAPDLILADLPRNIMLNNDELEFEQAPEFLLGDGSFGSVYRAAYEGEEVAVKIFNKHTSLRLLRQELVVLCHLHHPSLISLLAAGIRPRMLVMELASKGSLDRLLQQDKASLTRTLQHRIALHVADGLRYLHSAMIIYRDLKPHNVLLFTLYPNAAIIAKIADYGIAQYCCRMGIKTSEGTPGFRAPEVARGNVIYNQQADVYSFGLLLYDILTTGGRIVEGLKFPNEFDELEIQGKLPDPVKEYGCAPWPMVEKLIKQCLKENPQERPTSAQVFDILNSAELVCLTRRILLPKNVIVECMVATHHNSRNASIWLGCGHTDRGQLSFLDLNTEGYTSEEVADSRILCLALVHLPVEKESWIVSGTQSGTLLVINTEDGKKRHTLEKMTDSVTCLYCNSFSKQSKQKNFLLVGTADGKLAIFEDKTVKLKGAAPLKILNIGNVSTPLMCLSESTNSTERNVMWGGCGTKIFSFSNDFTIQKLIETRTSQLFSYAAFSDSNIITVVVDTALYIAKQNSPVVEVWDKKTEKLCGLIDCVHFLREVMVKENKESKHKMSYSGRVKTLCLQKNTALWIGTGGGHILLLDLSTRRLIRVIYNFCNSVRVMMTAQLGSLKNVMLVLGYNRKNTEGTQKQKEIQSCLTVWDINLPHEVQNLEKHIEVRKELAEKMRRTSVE", "assay": "LRRK2 TR-FRET peptide assay (in vitro kinase activity), wild-type", "type": "biochemical", "details": "not given", "procedure,_shortened": "(§1)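 Recombinant GST-LRRK2 wild-type pre-incubated with serially diluted compound in 1% DMSO for 15 min at room temperature, with kinase activity read by TR-FRET using a peptide substrate. IC50 derived from eight-point dose-response curves, with inhibition normalized to the plate's control and background wells.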"}
{"compound": "CC(C)Nc1c(C(N)=O)nnc2cc(N3CCN(C)CC3)ccc12", "note": "[Compound 4-188, 4-(isopropylamino)-7-(4-methylpiperazin-1-yl)cinnoline-3-carboxamide]", "pIC50": 7.28}
{"target": "recombinant GST-LRRK2 (wild-type) (Homo sapiens (Human), UniProt Q5S007)", "assay": "LRRK2 TR-FRET peptide assay (in vitro kinase activity), wild-type", "type": "biochemical", "details": "100 μM ATP, 100 nM biotin-LRRKtide substrate, 10 nM kinase, 60 minutes at room temperature", "procedure,_shortened": "as §1"}
{"compound": "CC(C)Nc1c(-c2nccc(=O)[nH]2)nnc2cc(-c3ccc(S(C)(=O)=O)cc3)ccc12", "note": "[Compound 3-187, 2-(4-(isopropylamino)-7-(4-(methylsulfonyl)phenyl)cinnolin-3-yl)pyrimidin-4(3H)-one]", "pIC50": 6.55}
{"compound": "CC(C)Nc1c(C(N)=O)nnc2cc(Oc3ccccc3)ccc12", "note": "[Compound 4-74, 4-(isopropylamino)-7-phenoxycinnoline-3-carboxamide]", "pIC50": 6.31}
{"compound": "CC(C)Nc1c(C(N)=O)nnc2cc(Sc3ccccc3)ccc12", "note": "[Compound 4-76, 4-(isopropylamino)-7-(phenylthio)cinnoline-3-carboxamide]", "pIC50": 6.25}
{"compound": "CC(C)Nc1c(C(N)=O)nnc2cc(Nc3ccccc3)ccc12", "note": "[Compound 4-78, 4-(isopropylamino)-7-(phenylamino)cinnoline-3-carboxamide]", "pIC50": 7.14}
{"compound": "CC(C)Nc1c(C(N)=O)nnc2cc(-n3cccn3)ccc12", "note": "[Compound 4-80, 4-(isopropylamino)-7-(1H-pyrazol-1-yl)cinnoline-3-carboxamide]", "pIC50": 7.51}
{"compound": "CC(C)Nc1c(C(N)=O)nnc2cc(N3CCCC3=O)ccc12", "note": "[Compound 4-85, 4-(isopropylamino)-7-(2-oxopyrrolidin-1-yl)cinnoline-3-carboxamide]", "pIC50": 6.77}
{"compound": "COc1ccccc1Nc1ccc2c(NC(C)C)c(C(N)=O)nnc2c1", "note": "[Compound 4-189, 4-(isopropylamino)-7-(2-methoxyphenylamino)cinnoline-3-carboxamide]", "pIC50": 7.17}
{"compound": "COc1ncccc1Nc1ccc2c(NC(C)C)c(C(N)=O)nnc2c1", "note": "[Compound 4-190, 4-(isopropylamino)-7-(2-methoxypyridin-3-ylamino)cinnoline-3-carboxamide]", "pIC50": 7.51}
{"compound": "CC(C)Nc1c(C(N)=O)nnc2ccc(N3CCOCC3)cc12", "note": "[Compound 4-191, 4-(isopropylamino)-6-morpholinocinnoline-3-carboxamide]", "pIC50": 5.89}
{"compound": "COc1cccc(Nc2ccc3c(NC(C)C)c(C(N)=O)nnc3c2)c1", "note": "[Compound 4-192, 4-(isopropylamino)-7-(3-methoxyphenylamino)cinnoline-3-carboxamide]", "pIC50": 6.62}
{"compound": "CC(C)Nc1c(C(N)=O)nnc2cc(-c3cscn3)ccc12", "note": "[Compound 5-55, 4-(isopropylamino)-7-(thiazol-4-yl)cinnoline-3-carboxamide]", "pIC50": 7.89}
{"compound": "Cc1nnc2cc(-c3ccc(S(C)(=O)=O)cc3)ccc2c1NC(C)C", "note": "[Compound 6-83, N-isopropyl-3-methyl-7-(4-(methylsulfonyl)phenyl)cinnolin-4-amine]", "pIC50": 4.67}
{"compound": "CC(C)Nc1c(C(N)=O)nnc2cc(CCO)ccc12", "note": "[Compound 7-198, 7-(2-hydroxyethyl)-4-(isopropylamino)cinnoline-3-carboxamide]", "pIC50": 6.03}
{"compound": "CC(C)Nc1c(-c2nc[nH]n2)nnc2cc(-c3ccc(S(C)(=O)=O)cc3)ccc12", "note": "[Compound 8-200, N-Isopropyl-7-(4-(methylsulfonyl)phenyl)-3-(1H-1,2,4-triazol-3-yl)cinnolin-4-amine]", "pIC50": 6.38}
{"compound": "COc1ccc(N2CCOC2=O)cc1-c1ccc2c(N[C@H](C)C3CC3)c(C(N)=O)nnc2c1", "note": "[Compound 9-206, (R)-4-(1-cyclopropylethylamino)-7-(2-methoxy-5-(2-oxooxazolidin-3-yl)phenyl)cinnoline-3-carboxamide]", "pIC50": 7.27}
{"compound": "COc1ccc(-n2cccn2)cc1-c1ccc2c(N[C@H](C)C3CC3)c(C(N)=O)nnc2c1", "note": "[Compound 9-207, (R)-4-(1-cyclopropylethylamino)-7-(2-methoxy-5-(1H-pyrazol-1-yl)phenyl)cinnoline-3-carboxamide]", "pIC50": 6.55}
{"compound": "COc1cc(N2CCOC2=O)ccc1-c1ccc(OC)c(-c2ccc3c(N[C@H](C)C4CC4)c(C(N)=O)nnc3c2)c1", "note": "[Compound 9-208, (R)-4-(1-cyclopropylethylamino)-7-(2′,4-dimethoxy-4′-(2-oxooxazolidin-3-yl)biphenyl-3-yl)cinnoline-3-carboxamide]", "pIC50": 5.96}
{"compound": "COc1ccc(N2CCOCC2=O)cc1-c1ccc2c(N[C@H](C)C3CC3)c(C(N)=O)nnc2c1", "note": "[Compound 9-209, (R)-4-(1-cyclopropylethylamino)-7-(2-methoxy-5-(3-oxomorpholino)phenyl)cinnoline-3-carboxamide]", "pIC50": 7.20}
{"compound": "COc1cc(N2CCOCC2=O)ccc1-c1ccc(OC)c(-c2ccc3c(N[C@H](C)C4CC4)c(C(N)=O)nnc3c2)c1", "note": "[Compound 9-210, (R)-4-(1-cyclopropylethylamino)-7-(2′,4-dimethoxy-4′-(3-oxomorpholino)biphenyl-3-yl)cinnoline-3-carboxamide]", "pIC50": 6.31}
{"compound": "C[C@@H](Nc1c(C(N)=O)nnc2cc(-c3ccc(N4CCOC4=O)cc3)ccc12)C1CC1", "note": "[Compound 9-213, (R)-4-(1-cyclopropylethylamino)-7-(4-(2-oxooxazolidin-3-yl)phenyl)cinnoline-3-carboxamide]", "pIC50": 9.00}
{"compound": "C#Cc1nnc2cc(-c3ccc(S(C)(=O)=O)cc3)ccc2c1NC(C)C", "note": "[Compound 10-87, 3-ethynyl-N-isopropyl-7-(4-(methylsulfonyl)phenyl)cinnolin-4-amine]", "pIC50": 6.00}
{"compound": "COc1cc(-c2ncccc2F)ccc1-c1ccc2c(N[C@H](C)C3CC3)c(C(N)=O)nnc2c1", "note": "[Compound 11-218, (R)-4-(1-Cyclopropylethylamino)-7-(4-(3-fluoropyridin-2-yl)-2-methoxyphenyl)cinnoline-3-carboxamide]", "pIC50": 7.37}
{"compound": "COc1cc(-c2nccnc2OC)ccc1-c1ccc2c(N[C@H](C)C3CC3)c(C(N)=O)nnc2c1", "note": "[Compound 11-220, (R)-4-(1-cyclopropylethylamino)-7-(2-methoxy-4-(3-methoxypyrazin-2-yl)phenyl)cinnoline-3-carboxamide]", "pIC50": 7.60}
{"compound": "COc1cc(-c2nccn2C)ccc1-c1ccc2c(N[C@H](C)C3CC3)c(C(N)=O)nnc2c1", "note": "[Compound 11-221, (R)-4-(1-cyclopropylethylamino)-7-(2-methoxy-4-(1-methyl-1H-imidazol-2-yl)phenyl)cinnoline-3-carboxamide]", "pIC50": 8.05}
{"compound": "CNC(=O)c1nnc2cc(-c3ccc(S(C)(=O)=O)cc3)ccc2c1NC(C)C", "note": "[Compound 12-227, 4-(Isopropylamino)-N-methyl-7-(4-(methylsulfonyl)phenyl)cinnoline-3-carboxamide]", "pIC50": 6.39}
{"compound": "CNC(=O)c1nnc2cc(-c3ccc(S(C)(=O)=O)cc3)ccc2c1NC", "note": "[Compound 12-229, N-methyl-4-(methylamino)-7-(4-(methylsulfonyl)phenyl)cinnoline-3-carboxamide]", "pIC50": "< 6.00"}
{"compound": "CNC(=O)c1nnc2cc(-c3ccc(S(C)(=O)=O)cc3)ccc2c1N[C@H](C)C1CC1", "note": "[Compound 12-231, (R)-4-(1-cyclopropylethylamino)-N-methyl-7-(4-(methylsulfonyl)phenyl)cinnoline-3-carboxamide]", "pIC50": 6.77}
{"compound": "CC(C)Nc1c(-c2ncc[nH]2)nnc2cc(-c3ccc(S(C)(=O)=O)cc3)ccc12", "note": "[Compound 13-233, 3-(1H-imidazol-2-yl)-N-isopropyl-7-(4-(methylsulfonyl)phenyl)cinnolin-4-amine]", "pIC50": 7.29}
{"compound": "C=C(C)c1ccc2c(N[C@H](C)C3CC3)c(C(=O)NC)nnc2c1", "note": "[Compound 14-235, (R)-4-(1-cyclopropylethylamino)-N-methyl-7-(prop-1-en-2-yl)cinnoline-3-carboxamide]", "pIC50": 5.80}
{"compound": "CNC(=O)c1nnc2cc(C3CC3)ccc2c1N[C@H](C)C1CC1", "note": "[Compound 14-236, (R)-7-cyclopropyl-4-(1-cyclopropylethylamino)-N-methylcinnoline-3-carboxamide]", "pIC50": 5.71}
